Results from patent US9056835B2, “LPA2 receptor-specific benzoic acid derivatives” (University of Tennessee Research Foundation, priority 2012, dated 2015).
Read-outs that look alike come from different tables or passages of the source.

Molecular target: LPA2 (Homo sapiens, UniProt Q9HBW0)
Experiment: LPA receptor-mediated Ca2+ mobilization assay, LPA2 (RH7777 cells stably expressing LPA2)
Type: cell-based
Set-up: expressed in transfected cells
Conditions: for receptor specificity of activation among established and putative LPA GPCRs: up to 10 μM
Method: Similarity searches were performed separately using each fingerprint to quantitate similarity. Hits meeting the 80% similarity threshold from each search were ranked based on the Tanimoto coefficient measure of similarity to a target molecule NSC12404, and the top 75 unique hits from each fingerprint search were selected for further analysis. […] This selected a diverse subset of 27 compounds for biological evaluation by choosing the middle compounds in each cluster. These 27 compounds were tested in Ca^2+ mobilization assays at a concentration of 10 μM using stable cell lines individually expressing LPA2 and also in vector-transfected control cells. Hits activating LPA2 were further tested using cells expressing the other established and putative LPA GPCRs. […] They arbitrarily selected GRI977143 for further characterization in cell-based assays.
The newly-synthesized compounds were tested for their ability to induce Ca^2+ transients in RH7777 cells stably expressing the LPA2 receptor.
The cells were loaded with Fura-2-acetoxymethyl esther (Fura-2/AM) in Krebs buffer containing 0.01% pluronic acid for 30 min and rinsed with Krebs buffer before measuring Ca^2+ mobilization. The ratio of peak emissions at 510 nm after 2 min of ligand addition was determined for excitation wavelengths of 340 nm/380 nm. All samples were run in quadruplicate. […] The half maximally effective concentration (EC50), and inhibitory constant (Ki) values were calculated by fitting a sigmoid function to dose-response data points using KaleidaGraph software (version 4.1, Synergy Software; […]).
Mouse embryonic fibroblast (MEF) cells were isolated from E13.5 LPA1&2 double knockout (DKO) embryos. MEFs were transduced with empty vector or LPA2-containing lentiviruses and selected with 1.5 μg/ml puromycin. Cells were maintained in Dulbecco's modified Eagle medium (DMEM) supplemented with 10% (V/V) fetal bovine serum (FBS), 2 mM L-glutamine, 100 U/mL penicillin, and 100 μg/mL streptomycin. Serum-free medium contained 0.1% (W/V) BSA in DMEM. The rat intestinal epithelial cell line 6 (IEC-6) was obtained from the American Type Culture Collection (Rockville, Md.) at passage 13; passages 16-21 were used in all experiments. IEC-6 cells were maintained in a humidified 37° C. incubator in an atmosphere of 90% air and 10% CO2. Growth medium consisted of DMEM supplemented with 5% heat inactivated FBS, 10 μg/mL insulin, and 50 μg/mL gentamycin. The composition of the serum-starvation medium was the same as that of the full growth medium except that it contained no FBS. The McArdle rat hepatoma cell line (RH7777) stably expressing LPA2 receptors was a gift from Dr. Fumikazu Okajima (Gunma University, Maebashi, Japan). RH7777 cells stably expressing LPA1 or LPA3 receptors were generated in-house and had been characterized earlier. Wild type and LPA receptor (LPAR) stably transfected RH7777 cells were grown in DMEM supplemented with 10% FBS and 2 mM L-glutamine in the presence of 250 μg/ml G418. Chinese hamster ovary (CHO) cells stably expressing either vector or LPA4 receptor were a kind gift from Dr. Takao Shimizu (Tokyo University; Tokyo, Japan). Cells were cultured in Ham's F12 medium containing 10% FBS, 2 mM L-glutamine, and 350 μg/ml G418. Rat neuroblastoma cells (B103) were transduced with the lentivirus harboring wild type of FLAG-LPA5 and selected with puromycin to establish the stable cell lines. The stable cells were maintained in DMEM supplemented with 10% FBS and 0.4 μg/ml puromycin. GPR87- and P2Y10-expressing CHO cells and vector-transfected control cells were a gift from Dr. Norihisha Fujita (Ritsumeikan University; Shiga, Japan). The highly invasive MM1 rat hepatoma cells (gift from Dr. Michiko Mukai, Osaka University, Japan) were grown in suspension in DMEM supplemented with 10% (V/V) FBS, 2 mM L-glutamine, 100 U/mL penicillin, and 100 μg/mL streptomycin.

[1] = agonist, Ca2+ mobilization, read-out: LPA2 EC50

Chain of LPA2 (Q9HBW0 whole entry): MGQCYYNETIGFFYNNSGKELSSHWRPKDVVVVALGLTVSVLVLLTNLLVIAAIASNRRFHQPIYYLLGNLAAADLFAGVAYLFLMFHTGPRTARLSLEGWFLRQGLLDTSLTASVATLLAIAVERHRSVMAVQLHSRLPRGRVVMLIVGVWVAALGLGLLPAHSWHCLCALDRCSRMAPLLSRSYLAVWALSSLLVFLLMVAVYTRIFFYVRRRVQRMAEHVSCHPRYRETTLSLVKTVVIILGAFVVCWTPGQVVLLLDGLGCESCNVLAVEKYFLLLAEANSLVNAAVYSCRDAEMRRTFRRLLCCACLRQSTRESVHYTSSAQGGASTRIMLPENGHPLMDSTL

O=C(O)c1cc(Cl)c(Cl)cc1C(=O)Nc1ccc2c(c1)C(=O)c1ccccc1-2 [Compound H2L5547924]
EC50 [1]: 2.8 µM | receptor specificity of activation among established and putative LPA GPCRs: activated only LPA2

O=C(O)c1ccccc1C(=O)Nc1ccc2c(c1)C(=O)c1ccccc1C2=O [Compound H2L5828102]
EC50 [1]: 3.3 µM | receptor specificity of activation among established and putative LPA GPCRs: activated only LPA2

O=C(O)c1ccccc1SCCCN1C(=O)c2cccc3cccc(c23)C1=O [GRI977143]
Emax (Ca2+ transients, RH7777 cells stably expressing LPA2): 64% | EC50 (Ca2+ transients, RH7777 cells stably expressing LPA2, read-out: EC50 (μM) (RH7777)): 3.3 µM | EC50 [1]: 3.3 µM | receptor specificity of activation among established and putative LPA GPCRs: activated only LPA2

O=C(O)c1ccccc1C(=O)Nc1ccc2c(c1)C(=O)c1ccccc1-2 [NSC12404]
EC50 [1]: 9.5 µM

octadecenyl thiophosphate [OTP]
EC50 [1]: 0.336 µM
